Results taken from EP1717234A1, “Phenoxypropylpiperidines and -pyrrolidines and their use as histamine H3-receptor ligands” (BIOPROJET, priority 2005, dated 2006).
Like-named read-outs stand apart in the source and are kept apart here.

Tests used:
CYP2D6 = CYP2D6 (Homo sapiens, UniProt P10635); test: Cytochrome inhibition, fluorometric microtiter plate assay (substrate AMMC); type: biochemical
Source text: (§1) Among the xenobiotic-metabolizing CYPs, five forms, CYP1A2, CYP2C9, CYP2C19, CYP2D6 and CYP3A4 appear to be the major CYP isoforms responsible for the oxidative metabolism of drugs or xenobiotics. Inhibition of CYP-mediated metabolism, often the mechanism for drug-drug interactions, can limit the use of a drug because of adverse clinical effects. The potential for CYP enzyme inhibition is routinely assessed by performing in vitro inhibition studies by measuring the rates of metabolism of a probe biotransformation in the presence and absence of test molecules. […] The incubation conditions for each cytochrome isoform were as follow: [table]

CYP3A4 = CYP3A4 (Homo sapiens, UniProt P08684); test: Cytochrome inhibition, fluorometric microtiter plate assay (substrate BFC); type: biochemical
Source text: as §1

[1] = target: human histamine H3 receptors (Homo sapiens, UniProt Q9Y5N1); test: H3 binding ([125I]iodoproxyfan, membranes); details: hH3 binding of the radioligand
Protocol: Membranes expressing human histamine H3 receptors were incubated 1 hour at room temperature in binding buffer containing 50 mM Na2HPO4/KH2PO4 pH 7.5 in a final volume of 200 µl. […] Non-specific binding was determined in the presence of 1 µM lmetit. The reaction was stopped by rapid filtration through GF/B filters (pre-soaked for 2 hours with 0.3% polyethyleneimine) followed by 3 ice cold binding buffer washes. The filter-bound radioactivity was measured in a liquid scintillation counter with 50µl of scintillation fluid.

[2] = compounds of the invention, human recombinant CYP2D6
[3] = compounds of the invention, human recombinant CYP3A4

Chain of CYP3A4 (P08684 whole entry): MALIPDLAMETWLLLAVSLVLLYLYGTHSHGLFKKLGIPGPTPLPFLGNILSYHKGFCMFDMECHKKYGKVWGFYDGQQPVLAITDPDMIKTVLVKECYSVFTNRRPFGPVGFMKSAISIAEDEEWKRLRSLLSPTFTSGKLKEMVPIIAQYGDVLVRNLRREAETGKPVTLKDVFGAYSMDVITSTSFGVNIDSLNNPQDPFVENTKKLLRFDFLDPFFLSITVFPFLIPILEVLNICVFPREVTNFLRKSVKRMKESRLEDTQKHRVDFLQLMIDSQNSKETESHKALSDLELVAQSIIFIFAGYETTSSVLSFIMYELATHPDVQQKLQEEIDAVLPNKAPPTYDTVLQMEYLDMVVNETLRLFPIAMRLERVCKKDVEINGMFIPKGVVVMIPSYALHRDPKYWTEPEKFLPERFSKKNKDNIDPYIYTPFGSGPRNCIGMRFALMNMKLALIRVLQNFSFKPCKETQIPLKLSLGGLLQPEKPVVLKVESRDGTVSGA
Chain of CYP2D6 (P10635 whole entry, canonical isoform): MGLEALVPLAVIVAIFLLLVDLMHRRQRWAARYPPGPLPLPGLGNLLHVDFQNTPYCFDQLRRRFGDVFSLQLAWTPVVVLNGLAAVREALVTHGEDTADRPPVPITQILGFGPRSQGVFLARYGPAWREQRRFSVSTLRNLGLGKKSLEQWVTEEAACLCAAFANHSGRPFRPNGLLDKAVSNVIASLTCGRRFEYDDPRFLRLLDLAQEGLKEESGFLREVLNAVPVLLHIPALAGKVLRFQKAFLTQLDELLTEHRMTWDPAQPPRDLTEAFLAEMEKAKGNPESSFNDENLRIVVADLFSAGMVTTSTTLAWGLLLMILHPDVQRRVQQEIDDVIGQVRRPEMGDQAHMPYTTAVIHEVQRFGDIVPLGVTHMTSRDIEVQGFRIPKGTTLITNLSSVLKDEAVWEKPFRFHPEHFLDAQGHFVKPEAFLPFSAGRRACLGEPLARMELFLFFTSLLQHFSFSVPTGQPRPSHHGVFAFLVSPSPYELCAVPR
Chain of human histamine H3 receptors (Q9Y5N1 whole entry): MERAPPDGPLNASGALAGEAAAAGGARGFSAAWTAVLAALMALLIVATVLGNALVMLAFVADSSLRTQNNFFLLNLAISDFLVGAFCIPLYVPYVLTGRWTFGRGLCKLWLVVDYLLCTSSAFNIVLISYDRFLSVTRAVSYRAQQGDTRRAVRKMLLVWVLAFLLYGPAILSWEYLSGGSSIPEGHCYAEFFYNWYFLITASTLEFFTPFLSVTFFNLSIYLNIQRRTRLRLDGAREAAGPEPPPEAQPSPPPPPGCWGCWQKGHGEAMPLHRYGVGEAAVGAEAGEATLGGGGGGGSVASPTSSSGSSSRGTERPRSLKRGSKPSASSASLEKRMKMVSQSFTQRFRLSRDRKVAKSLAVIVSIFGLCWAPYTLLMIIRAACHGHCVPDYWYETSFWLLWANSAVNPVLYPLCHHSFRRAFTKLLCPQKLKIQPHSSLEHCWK

Row | IC50 (CYP2D6; [2]) [nM] | IC50 (CYP3A4; [3]) [nM] | SMILES | further results
1 | > 100000 |  | C[C@H]1C[C@H](C)CN(CCCOc2ccc(C(=O)N(C)C)cc2)C1 (relative stereo) [Example 1, trans-1-{3-[4-(N,N-dimethylcarbamoyl)phenoxy]propyl}-3,5-dimethylpiperidine] | 
2 | > 100000 | > 100000 | C[C@H]1C[C@H](C)CN(CCCOc2ccc(C3=NCCC3)cc2)C1 (relative stereo) [Example 17, trans-1-{3-[4-(4,5-dihydro-3H-pyrrol-2-yl)phenoxy]propyl}-3,5-dimethylpiperidine] | 
3 |  | > 2000 | Cc1ccc(-c2ccc(OCCCN3CCCCC3)cc2)cc1 [Example 24, 1-{3-[(4'-methylbiphenyl-4-yl)oxy]propyl}piperidine] | 
4 |  |  | Cc1cc(-c2ccc(OCCCN3CCC[C@H](C)C3)cc2)ccn1 [Example 59] | IC50 (CYP2D6; read-out: CYP2D6 (IC50, concentrations for 50% inhibition), comparative compounds of WO 00/06254): 1000 nM; IC50 (CYP3A4; read-out: CYP3A4 (IC50, concentrations for 50% inhibition), comparative compounds of WO 00/06254): > 1000 nM
5 |  |  | Ic1ccc(COCCCc2cnc[nH]2)cc1 [[^125]iodoproxyfan] | Kd [1]: 0.078 ± 0.006 nM
